Measurements published in article PMC8262356, “SLC26A6-selective inhibitor identified in a small-molecule screen blocks fluid absorption in small intestine” (JCI Insight, 2021).

What was measured:
SLC26A9 = target: T1, SLC26A9 (Homo sapiens, UniProt Q7LBE3); test: Selectivity: Cl-/I- exchange in FRT cells coexpressing YFP and SLC26A9; format: cell-based; conditions: 25 μM
T1 construct: expressed in transfected cells; host or cells: FRT cells coexpressing YFP
T1 sequence (Q7LBE3 1-791): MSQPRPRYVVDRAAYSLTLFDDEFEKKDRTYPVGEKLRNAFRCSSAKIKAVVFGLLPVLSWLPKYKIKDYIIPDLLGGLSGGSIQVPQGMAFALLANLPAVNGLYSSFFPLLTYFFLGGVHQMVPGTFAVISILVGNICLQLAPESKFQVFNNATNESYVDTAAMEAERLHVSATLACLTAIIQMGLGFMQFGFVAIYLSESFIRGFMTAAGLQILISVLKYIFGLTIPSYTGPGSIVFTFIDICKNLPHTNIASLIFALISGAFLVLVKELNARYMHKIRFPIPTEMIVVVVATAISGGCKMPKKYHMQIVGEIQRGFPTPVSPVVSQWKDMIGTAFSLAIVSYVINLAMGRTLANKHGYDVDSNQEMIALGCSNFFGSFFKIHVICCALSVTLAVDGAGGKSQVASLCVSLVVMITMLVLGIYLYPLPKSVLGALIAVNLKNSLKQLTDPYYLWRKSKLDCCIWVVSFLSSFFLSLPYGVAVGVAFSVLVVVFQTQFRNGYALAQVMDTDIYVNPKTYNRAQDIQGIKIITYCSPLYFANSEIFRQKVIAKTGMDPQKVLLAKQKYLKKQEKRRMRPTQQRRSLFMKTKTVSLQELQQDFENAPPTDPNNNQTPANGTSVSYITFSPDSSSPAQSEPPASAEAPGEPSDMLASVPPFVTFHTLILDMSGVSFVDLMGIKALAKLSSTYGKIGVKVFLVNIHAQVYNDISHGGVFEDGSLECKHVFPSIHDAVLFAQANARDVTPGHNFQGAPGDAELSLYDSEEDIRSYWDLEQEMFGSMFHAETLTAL
Protocol: (§1) PAT1inh-B01 selectivity was studied by testing its effects on related SLC26A family anion transporters and the Cl^– channel TMEM16A. These measurements used a similar Cl^–/I^– exchange protocol, but FRT cells separately expressed each of the SLC26A family members or TMEM16A. […] PAT1inh-B01 selectivity was also tested by short-circuit current (Isc) in well-differentiated human bronchial epithelial (HBE) cells, which have a complex ion transport mechanism that includes cystic fibrosis transmembrane conductance regulator (CFTR), epithelial Na^+ channel (ENaC), and Ca^+2-activated chloride channels (CaCCs) ([13]). […] Potential PAT1inh-B01 cytotoxicity was studied in FRT cells.
(§2) Figure 3 PAT1inh-B01 selectivity and cytotoxicity. […] Cl^–/I^– exchange or I^– influx measured in FRT cells coexpressing YFP and SLC26A isoforms or TMEM16A, with data shown for 25 μM PAT1inh-B01, DMSO vehicle control, and 500 μM niflumic acid (positive control for SLC26A transporters) or 10 μM TMinh-23 (positive control for TMEM16A). […] (C) (left) Short-circuit current (Isc) in well-differentiated HBE cells measured in the absence (top) and presence (bottom) of 25 μM PAT1inh-B01. […]
(§3) YFP-based cellular assays of slc26a3, slc26a4, SLC26A9, and TMEM16A function were performed as described previously ([7]). […] The activities of ENaC, CFTR, and CaCC were determined using well-differentiated HBE cells as described previously ([13]). […]

CaCC = test: Short-circuit current in well-differentiated HBE cells, ATP response; format: cell-based, human; conditions: 25 μM pretreatment
Protocol: as §1, §2, §3

## Cc1c(Br)c(C(F)(F)F)nn1CC(=O)N1CCc2nc3cc(-c4ccccc4)[nH]n3c(=O)c2C1 [PAT1inh-B01]
SLC26A9
  inhibition of SLC26A9: did not significantly inhibit
CaCC
  effect on CaCC activity (Isc response to ATP): no significant effect
